# Assay results taken from patent US11111249B2, “Heteroaryl-pyrazole derivative, and preparation method therefor and medical application thereof” (Jiangsu Hengrui Medicine Co., Ltd., priority 2017, dated 2021).
# How the values were obtained:
# human TLR8 = biological target: T1, human TLR8 (Homo sapiens, UniProt Q9NR97); assay: Activation of hTLR8 in HEK-Blue hTLR8 stably transfected cells; type: cell-based; conditions: OD 620 nm, 6-16 hours
# T1 construct: host or cells: HEK-Blue hTLR8 (HEK293-derived) stably transfected cells
# T1 sequence (Q9NR97 27-1041): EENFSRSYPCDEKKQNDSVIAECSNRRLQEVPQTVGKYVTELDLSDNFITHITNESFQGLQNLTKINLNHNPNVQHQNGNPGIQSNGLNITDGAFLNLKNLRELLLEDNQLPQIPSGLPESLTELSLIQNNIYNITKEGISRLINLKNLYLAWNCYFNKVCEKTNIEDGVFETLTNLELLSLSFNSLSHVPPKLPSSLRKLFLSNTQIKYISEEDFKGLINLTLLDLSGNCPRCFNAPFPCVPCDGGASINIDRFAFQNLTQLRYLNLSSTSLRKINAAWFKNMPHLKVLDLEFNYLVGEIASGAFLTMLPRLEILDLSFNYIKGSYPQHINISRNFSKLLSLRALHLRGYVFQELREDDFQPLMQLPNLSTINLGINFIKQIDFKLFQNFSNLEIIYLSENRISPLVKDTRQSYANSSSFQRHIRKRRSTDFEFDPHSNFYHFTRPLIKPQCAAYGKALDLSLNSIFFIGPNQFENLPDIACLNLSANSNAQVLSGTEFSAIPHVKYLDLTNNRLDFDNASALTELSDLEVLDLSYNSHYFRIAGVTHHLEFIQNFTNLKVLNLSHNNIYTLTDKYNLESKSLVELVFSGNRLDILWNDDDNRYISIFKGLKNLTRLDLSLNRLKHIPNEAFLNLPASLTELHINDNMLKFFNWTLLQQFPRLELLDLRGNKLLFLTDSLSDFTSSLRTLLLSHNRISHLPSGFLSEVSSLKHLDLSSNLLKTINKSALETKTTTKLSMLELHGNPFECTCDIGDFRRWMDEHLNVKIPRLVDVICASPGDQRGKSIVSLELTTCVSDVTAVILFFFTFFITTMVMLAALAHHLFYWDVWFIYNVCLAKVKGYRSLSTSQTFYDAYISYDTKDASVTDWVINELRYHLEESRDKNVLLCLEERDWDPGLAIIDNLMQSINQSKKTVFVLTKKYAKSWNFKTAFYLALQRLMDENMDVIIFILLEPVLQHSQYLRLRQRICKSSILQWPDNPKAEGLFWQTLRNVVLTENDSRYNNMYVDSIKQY
# Protocol: (§1) The activation effect of the compound of the present application on the hTLR7 protein expressed in HEK-Blue™ hTLR7 stably transfected cells and hTLR8 protein expressed in HEK-Blue™ hTLR8 stably transfected cells were determined by the following experimental method:
# (§2) The HEK-Blue assay medium was configured, HEK-Blue test dry powder was taken and 50 mL deendotoxin water were added to dissolve, then the resulting mixture was placed into the 37° C. incubator, and then filtered aseptically 10 minutes later. […]
# (§3) The above-prepared compound was diluted 20-fold with a medium, and then 20 μL of the diluted compound were added to each well. HEK-Blue™ hTLR7 cells and HEK-Blue™ hTLR8 cells were taken separately, and the supernatant was removed first, then 2-5 mL pre-warmed PBS was added, placed in an incubator for 1-2 minutes, and the cells were gently pipetted, stained with trypan blue and counted. […]
# (§4) The microplate reader reads at a wavelength of 620 nm. The corresponding OD value was obtained, and the EC50 value of the drug was calculated by Graphpad Prism. The activation effect of the compound of the present application and the control compound (prepared by the method of embodiment 21 of WO2016023511) on human TLR7 and TLR8 were determined by the above test, and the measured EC50 values were as shown in Table 1.
# human TLR7 = biological target: T2, human TLR7 (Homo sapiens, UniProt Q9NYK1); assay: Activation of hTLR7 in HEK-Blue hTLR7 stably transfected cells; type: cell-based; conditions: OD 620 nm, 6-16 hours
# T2 construct: host or cells: HEK-Blue hTLR7 (HEK293-derived) stably transfected cells
# T2 sequence (Q9NYK1 27-1049): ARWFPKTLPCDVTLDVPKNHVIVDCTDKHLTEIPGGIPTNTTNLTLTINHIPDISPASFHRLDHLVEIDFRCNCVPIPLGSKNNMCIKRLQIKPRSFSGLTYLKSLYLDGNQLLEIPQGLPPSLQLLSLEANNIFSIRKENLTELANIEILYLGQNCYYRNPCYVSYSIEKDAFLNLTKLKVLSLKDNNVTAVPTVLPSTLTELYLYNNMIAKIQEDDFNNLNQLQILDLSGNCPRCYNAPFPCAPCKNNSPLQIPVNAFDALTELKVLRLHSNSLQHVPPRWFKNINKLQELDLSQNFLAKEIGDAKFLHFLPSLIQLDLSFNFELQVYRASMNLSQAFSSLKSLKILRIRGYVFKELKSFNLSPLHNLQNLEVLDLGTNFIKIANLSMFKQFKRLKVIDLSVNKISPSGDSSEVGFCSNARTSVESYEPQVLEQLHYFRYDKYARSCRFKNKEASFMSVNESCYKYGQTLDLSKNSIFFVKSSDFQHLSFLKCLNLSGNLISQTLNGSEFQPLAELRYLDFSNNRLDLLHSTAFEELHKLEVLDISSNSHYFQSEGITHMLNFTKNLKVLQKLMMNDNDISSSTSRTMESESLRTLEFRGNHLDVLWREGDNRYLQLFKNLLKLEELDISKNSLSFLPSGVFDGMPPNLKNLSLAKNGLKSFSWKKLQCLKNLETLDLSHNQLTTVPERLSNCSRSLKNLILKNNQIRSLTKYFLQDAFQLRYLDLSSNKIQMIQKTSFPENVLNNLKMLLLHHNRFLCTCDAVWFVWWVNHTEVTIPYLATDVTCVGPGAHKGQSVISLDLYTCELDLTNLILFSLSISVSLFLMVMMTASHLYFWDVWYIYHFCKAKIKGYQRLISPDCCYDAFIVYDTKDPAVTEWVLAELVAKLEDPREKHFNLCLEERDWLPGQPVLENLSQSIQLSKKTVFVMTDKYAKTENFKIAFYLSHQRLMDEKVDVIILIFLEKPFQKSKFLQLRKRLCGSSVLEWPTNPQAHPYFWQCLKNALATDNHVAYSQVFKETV
# Protocol: as §1, §2, §3, §4
SMILES,EC50 (human TLR8),EC50 (human TLR7)
"CCCCOc1nc(N)c2[nH]nc(Cc3ccc(CN4CCCC4)cc3)c2n1 [Embodiment 1, 5-Butoxy-3-(4-(pyrrolidin-1-ylmethyl)benzyl)-1H-pyrazolo[4,3-d]pyrimidin-7-amine]",5220 nM,53 nM
CCCCOc1nc(N)c2[nH]cc(Cc3ccc(CN4CCCC4)cc3)c2n1 [Embodiment 21 of WO2016023511],12500 nM,243 nM
